Reference: PubChem BioAssay (NCI)
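Following 48 hours of exposure in 96-well plates, responses at five concentrations were used to interpolate endpoints linearly. The concentration for full growth arrest is given as TGI.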

Legend:
Experiment in all cases: NCI anticancer screen, dose series, 48 h
786-0 renal = system: 786-0 renal
A498 renal = system: A498 renal
A549 NSCLC = system: A549 NSCLC
ACHN renal = system: ACHN renal
CAKI-1 renal = system: CAKI-1 renal
CCRF-CEM leukemia = system: CCRF-CEM leukemia
COLO 205 colon = system: COLO 205 colon
DLD-1 colon = system: DLD-1 colon
DMS 114 small cell lung = system: DMS 114 small cell lung
DMS 273 small cell lung = system: DMS 273 small cell lung
EKVX NSCLC = system: EKVX NSCLC
HCC-2998 colon = system: HCC-2998 colon
HCT-116 colon = system: HCT-116 colon
HCT-15 colon = system: HCT-15 colon
HL-60(TB) leukemia = system: HL-60(TB) leukemia
HOP-18 NSCLC = system: HOP-18 NSCLC
HOP-62 NSCLC = system: HOP-62 NSCLC
HOP-92 NSCLC = system: HOP-92 NSCLC
HT29 colon = system: HT29 colon
IGROV1 ovarian = system: IGROV1 ovarian
K-562 leukemia = system: K-562 leukemia
KM12 colon = system: KM12 colon
LXFL 529 NSCLC = system: LXFL 529 NSCLC
M14 melanoma = system: M14 melanoma
M19-MEL melanoma = system: M19-MEL melanoma
MALME-3M melanoma = system: MALME-3M melanoma
MOLT-4 leukemia = system: MOLT-4 leukemia
NCI-H226 lung = system: NCI-H226 lung
NCI-H23 lung = system: NCI-H23 lung
NCI-H460 lung = system: NCI-H460 lung
NCI-H522 lung = system: NCI-H522 lung
OVCAR-3 ovarian = system: OVCAR-3 ovarian
OVCAR-4 ovarian = system: OVCAR-4 ovarian
OVCAR-5 ovarian = system: OVCAR-5 ovarian
OVCAR-8 ovarian = system: OVCAR-8 ovarian
RPMI-8226 leukemia = system: RPMI-8226 leukemia
RXF-631 renal = system: RXF-631 renal
SF-268 CNS = system: SF-268 CNS
SF-295 CNS = system: SF-295 CNS
SF-539 CNS = system: SF-539 CNS
SK-MEL-2 melanoma = system: SK-MEL-2 melanoma
SK-MEL-28 melanoma = system: SK-MEL-28 melanoma
SK-MEL-5 melanoma = system: SK-MEL-5 melanoma
SK-OV-3 ovarian = system: SK-OV-3 ovarian
SN12C renal = system: SN12C renal
SNB-19 CNS = system: SNB-19 CNS
SNB-75 CNS = system: SNB-75 CNS
SNB-78 CNS = system: SNB-78 CNS
SR leukemia = system: SR leukemia
SW-620 colon = system: SW-620 colon
TK-10 renal = system: TK-10 renal
U251 CNS = system: U251 CNS
UACC-257 melanoma = system: UACC-257 melanoma
UACC-62 melanoma = system: UACC-62 melanoma
UO-31 renal = system: UO-31 renal
KM20L2 colon = system: KM20L2 colon
LOX IMVI melanoma = system: LOX IMVI melanoma
RXF 393 renal = system: RXF 393 renal
XF 498 CNS = system: XF 498 CNS

Measured: TGI

Cc1cc2c(cc1C)[n+](=O)cc(C(=O)C/C(=N/NC(=S)NN)C(=O)Nc1cccc(C(F)(F)F)c1)n2[O-]
not listed: KM20L2 colon | LOX IMVI melanoma | RXF 393 renal | XF 498 CNS
> 100 µM: all other assays above

Cc1cc(C)nc(NS(=O)(=O)c2ccc(Nc3c4ccccc4nc4c(C(=O)N5CCN(CCO)CC5)cccc34)cc2)n1
not listed: NCI-H522 lung | RPMI-8226 leukemia | RXF-631 renal
> 100 µM: all other assays above
